For orientation: Ki means the dissociation constant of the complex between target and ligand, obtained from inhibition or displacement.

Among the data in patent US6114334A, “Piperazine derivatives as therapeutic agents” (Knoll Aktiengesellschaft, priority 1995, dated 2000) are Ki and inhibition values, retold here.

One experiment addresses T1, 5-HT1A receptors (Rattus norvegicus, UniProt P19327).
T1 sequence (P19327 1-422): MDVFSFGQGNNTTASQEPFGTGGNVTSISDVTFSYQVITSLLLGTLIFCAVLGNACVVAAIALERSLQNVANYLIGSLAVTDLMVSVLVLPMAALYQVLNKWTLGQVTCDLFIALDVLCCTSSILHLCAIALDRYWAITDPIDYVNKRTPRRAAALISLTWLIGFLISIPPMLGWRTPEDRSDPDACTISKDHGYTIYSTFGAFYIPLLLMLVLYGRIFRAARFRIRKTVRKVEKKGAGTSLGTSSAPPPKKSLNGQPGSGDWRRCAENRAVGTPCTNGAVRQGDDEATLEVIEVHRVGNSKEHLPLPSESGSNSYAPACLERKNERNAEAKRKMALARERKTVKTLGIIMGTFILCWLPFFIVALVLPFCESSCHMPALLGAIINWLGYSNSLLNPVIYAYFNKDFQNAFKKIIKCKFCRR
Put plainly: inhibition of [3H]8-OH-DPAT binding to 5-HT1A receptors in vitro. Also on record: species or system rat (male Sprague-Dawley, hippocampal tissue). The following applies: rat hippocampus, [3H]8-OH-DPAT 2 nM, 25° C., 30 min.

For another experiment, the target named is T2, α2D-adrenoceptors (Rattus norvegicus, UniProt P22909).
T2 sequence (P22909 1-465): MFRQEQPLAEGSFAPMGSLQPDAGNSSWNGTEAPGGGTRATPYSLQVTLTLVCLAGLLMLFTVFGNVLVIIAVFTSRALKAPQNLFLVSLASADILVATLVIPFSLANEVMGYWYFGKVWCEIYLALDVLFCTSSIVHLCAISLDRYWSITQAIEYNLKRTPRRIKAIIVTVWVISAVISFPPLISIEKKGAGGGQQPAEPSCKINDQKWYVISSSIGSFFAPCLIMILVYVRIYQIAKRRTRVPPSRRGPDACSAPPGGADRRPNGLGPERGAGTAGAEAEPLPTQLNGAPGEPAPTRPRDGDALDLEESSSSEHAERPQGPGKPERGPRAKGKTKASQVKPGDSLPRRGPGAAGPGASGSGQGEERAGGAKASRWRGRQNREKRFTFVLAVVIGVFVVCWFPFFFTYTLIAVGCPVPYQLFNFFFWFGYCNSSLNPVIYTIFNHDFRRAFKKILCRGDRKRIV
In words: inhibition of tritiated idazoxan binding to α2D-adrenoceptors in vitro. Also on record: species or system rat (male Charles River CD, frontal cortical tissue). The following applies: rat frontal cortex; for Ki: [3H]idazoxan 1 nM, 0° C., 75 min.

The target of a further experiment is α1-adrenoceptors. In words: inhibition of 7-methoxy-[3H]prazosin binding to α1-adrenoceptors in vitro. Also on record: species or system rat (male Charles River CD, whole cortical tissue). The following applies: rat whole cortex, 7-methoxy-[3H]prazosin 0.1 nM, 30° C., 30 min. A digest of the protocol: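 Male CD rat cortical membranes in 50 mM Tris-HCl pH 7.6 were incubated 30 min at 30 °C with 7-methoxy-[3H]prazosin (0.1 nM as added), with 5 μM phentolamine (as added) defining non-specific binding, then filtered and counted. Compounds were tested at 10^-6 M for % displacement or at 10^-11–10^-3 M for IC50, and Ki was derived from IC50, ligand concentration and KD.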

The target in another experiment is T3, α2A-adrenoceptors (Homo sapiens, UniProt P08913).
T3 construct: Human cerebral cortex obtained at post-mortem; from tissue; host or cells: human cerebral cortex, post-mortem
T3 sequence (P08913 1-465): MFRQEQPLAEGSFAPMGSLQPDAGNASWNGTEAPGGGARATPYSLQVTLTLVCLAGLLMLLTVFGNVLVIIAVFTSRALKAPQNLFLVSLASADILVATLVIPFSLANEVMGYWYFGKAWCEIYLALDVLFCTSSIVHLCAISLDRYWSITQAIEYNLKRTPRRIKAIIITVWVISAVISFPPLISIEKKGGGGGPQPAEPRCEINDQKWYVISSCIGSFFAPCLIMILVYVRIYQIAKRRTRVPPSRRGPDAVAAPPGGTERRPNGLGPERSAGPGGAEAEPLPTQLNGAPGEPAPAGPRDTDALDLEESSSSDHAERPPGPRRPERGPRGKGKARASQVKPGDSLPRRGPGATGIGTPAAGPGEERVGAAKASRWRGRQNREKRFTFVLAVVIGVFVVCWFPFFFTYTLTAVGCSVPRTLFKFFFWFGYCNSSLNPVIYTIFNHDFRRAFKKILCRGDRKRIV
In words: inhibition of tritiated RX 821002 binding to α2A-adrenoceptors in vitro. Also on record: species or system human (cerebral cortex post-mortem). To be noted: human cerebral cortex; for inhibition at 1 µM: 10^-6 M, [3H]RX 821002, read-out: % displacement at 10^-6 M, α2A. The method in brief: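 Post-mortem human cerebral cortex membranes (10 mg wet tissue/tube; 50 mM Tris-HCl pH 7.5, ascorbate, EDTA) incubated 75 min at 0 °C with [3H]RX 821002 (0.2 nM as added) and compound; filtration, scintillation counting. Compounds displacing ≥50% at 10^-6 M tested at 10^-11–10^-3 M; IC50 converted to Ki.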

The target in another experiment is D2 dopamine receptors (Rattus norvegicus, UniProt P61169). Put plainly: inhibition of tritiated (S)-sulpiride binding to D2 dopamine receptors in vitro. Also on record: species or system rat (male Charles River CD, striatal tissue). The following applies: rat striatum, tritiated (S)-sulpiride 1 nM, 4° C., 40 min.
Sequence of D2 dopamine receptors (P61169 whole entry): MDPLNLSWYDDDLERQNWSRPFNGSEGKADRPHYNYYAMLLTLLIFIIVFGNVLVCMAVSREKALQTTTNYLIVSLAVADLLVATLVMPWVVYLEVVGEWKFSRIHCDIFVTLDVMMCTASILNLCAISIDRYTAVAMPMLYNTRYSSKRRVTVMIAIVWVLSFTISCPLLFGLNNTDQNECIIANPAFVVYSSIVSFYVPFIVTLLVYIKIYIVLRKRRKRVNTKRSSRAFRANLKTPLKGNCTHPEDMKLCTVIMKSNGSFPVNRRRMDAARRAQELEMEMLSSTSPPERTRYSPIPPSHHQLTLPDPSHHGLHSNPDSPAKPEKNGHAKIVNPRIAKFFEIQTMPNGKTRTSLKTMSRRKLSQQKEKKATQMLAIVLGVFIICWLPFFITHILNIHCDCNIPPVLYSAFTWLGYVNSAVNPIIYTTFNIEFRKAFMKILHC

Experimental for 5-HT1A receptors: Hippocampal tissue from the brains of male Sprague-Dawley rats (Charles River; weight range 150-250 g) was homogenised in ice-cold 50 mM Tris-HCl buffer (pH 7.7 when measured at 25° C., 1:40 w/v) and centrifuged at 30,000 g at 4° C. for 10 minutes. The pellet was rehomogenised in the same buffer, incubated at 37° C. for 10 minutes and centrifuged at 30,000 g at 4° C. for 10 minutes. The final pellet was resuspended in 50 mM Tris-HCl buffer (pH 7.7) containing 4 mM CaCl2. 0.1% L-ascorbic acid and 10 μM pargyline hydrochloride (equivalent to 6.25 mg wet weight of tissue/ml) and used immediately in the binding assay. Aliquots (400 μl; equivalent to 2.5 mg wet weight of tissue/tube) of this suspension were added to tubes containing the ligand (50 μl; 2 nM) and distilled water (50 μl; total binding) or 5-HT (50 μl; 10 μM; non-specific binding) or test compound (50 μl; at a single concentration of 10^-6 M or at 10 concentrations ranging from 10^-11 -10^-3 M). The ligand was [^3 H]8-hydroxy-2-(dipropylamino)tetralin ([^3 H]8-OH-DPAT) and the mixture was incubated at 25° C. for 30 minutes before the incubation was terminated by rapid filtration.
The filters were washed with ice-cold Tris-HCl buffer and dried. The filters were punched out into vials, scintillation fluid added and radioactivity determined by liquid scintillation counting. The percentage displacement of specific binding of the tritiated ligand was calculated for the single concentration (10^-6 M) of test compound. Displacement curves were then produced for those compounds which displaced ≥50% of specific binding of the tritiated ligand at 10^-6 M using a range of concentrations of the compound. The concentration which gave 50% inhibition of specific binding (IC50) was obtained from the curve. The inhibition coefficient Ki was then calculated using the formula [formula] in which [ligand] is the concentration of the tritiated ligand used and KD is the equilibrium dissociation constant for the ligand.

As to `CC1(CN2CCN(c3cccc4c3OCCO4)CC2)N=C(c2ccccc2)NC1=O` (stereo not drawn) [Example 38, 4-[4-(1,4-benzodioxan-5-yl)piperazin-1-ylmethyl]-4-methyl-2-phenyl-2-imidazolin-5-one], the inhibition constant (Ki) on 5-HT1A receptors turned out to be 22 nM; on α2D-adrenoceptors it was 199 nM; on α1-adrenoceptors, 473 nM; at α2A-adrenoceptors ([3H]RX 821002 0.2 nM, 0° C., 75 min) it was 196 nM; at D2 dopamine receptors, 281 nM.
For `CC1(CN2CCN(c3cccc4c3OCCO4)CC2)N=C(c2cccnc2)NC1=O` (stereo not drawn) [Example 40, 4-[4-(1,4-Benzodioxan-5-yl)piperazin-1-ylmethyl]-4-methyl-2-(3-pyridyl)-2-imidazolin-5-one], the inhibition constant Ki at 5-HT1A receptors was 19 nM; at α2D-adrenoceptors, 220 nM; on α1-adrenoceptors, greater than 500 nM; at D2 dopamine receptors, 315 nM. Moreover, the inhibition at 1 µM at α2A-adrenoceptors is 69%.
In the same order, the values of `CC1(CN2CCN(c3cccc(C(F)(F)F)c3)CC2)N=C(c2ccccc2)NC1=O` (stereo not drawn) [Example 41, 4-Methyl-2-phenyl-4-{4-[3-(trifluoromethyl)phenyl]piperazin-1-ylmethyl}-2-imidazolin-5-one] are 224 nM, greater than 500 nM, greater than 500 nM, 129 nM and 57%.
On to `CC1(CN2CCN(c3cccc(Cl)c3)CC2)N=C(c2ccccc2)NC1=O` (stereo not drawn) [Example 42, 4-[4-(3-Chlorophenyl)piperazin-1-ylmethyl]-4-methyl-2-phenyl-2-imidazolin-5-one], for which the inhibition constant (Ki) on 5-HT1A receptors is 213 nM; at α2D-adrenoceptors, 226 nM; at α1-adrenoceptors, greater than 500 nM; at D2 dopamine receptors, greater than 500 nM. The inhibition at 1 µM on α2A-adrenoceptors turned out to be 84%.
As to `Cc1ccccc1N1CCN(CC2(C)N=C(c3ccccc3)NC2=O)CC1` (stereo not drawn) [Example 43, 4-Methyl-4-[4-(2-methylphenyl)piperazin-1-ylmethyl]-2-phenyl-2-imidazolin-5-one], the Ki on 5-HT1A receptors is 276 nM; at α2D-adrenoceptors it was 33 nM; on α1-adrenoceptors, greater than 500 nM; on D2 dopamine receptors, greater than 500 nM. Besides, the inhibition at 1 µM on α2A-adrenoceptors turned out to be 93%.
Turning to `C=CCN1C(=O)C(C)(CN2CCN(c3cccc4c3OCCO4)CC2)N=C1c1cccnc1` (stereo not drawn) [Example 44, 1-allyl-4-[4-(1,4-benzodioxan-5-yl)piperazin-1-ylmethyl]-4-methyl-2-(3-pyridyl)-2-imidazolin-5-one], the inhibitory constant (Ki) at 5-HT1A receptors was 15 nM; on α1-adrenoceptors it was greater than 500 nM; at D2 dopamine receptors, 345 nM. The inhibition at 1 µM on α2D-adrenoceptors (10^-6 M, [3H]idazoxan, read-out: % displacement at 10^-6 M, α2D) is 54%; on α2A-adrenoceptors, 76%.
